Key:
[1] = biological target: Adenosine receptor A2a (Homo sapiens, UniProt P29274)
[2] = biological target: T1, Adenosine receptor A3 (Homo sapiens, UniProt P0DMS8)
T1 sequence (P0DMS8 whole entry): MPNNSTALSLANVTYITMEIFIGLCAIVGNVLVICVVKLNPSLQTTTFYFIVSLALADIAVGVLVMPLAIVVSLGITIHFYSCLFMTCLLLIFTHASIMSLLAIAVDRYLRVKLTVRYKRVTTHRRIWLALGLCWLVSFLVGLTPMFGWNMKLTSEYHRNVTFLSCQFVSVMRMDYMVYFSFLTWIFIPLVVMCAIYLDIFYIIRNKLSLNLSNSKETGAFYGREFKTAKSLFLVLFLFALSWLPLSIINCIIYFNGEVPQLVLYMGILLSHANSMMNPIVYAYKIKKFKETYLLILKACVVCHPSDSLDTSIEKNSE

[3] = biological target: T2, Alpha-1A adrenergic receptor (Homo sapiens, UniProt P35348); assay type: functional, cell-based
T2 sequence (P35348 whole entry): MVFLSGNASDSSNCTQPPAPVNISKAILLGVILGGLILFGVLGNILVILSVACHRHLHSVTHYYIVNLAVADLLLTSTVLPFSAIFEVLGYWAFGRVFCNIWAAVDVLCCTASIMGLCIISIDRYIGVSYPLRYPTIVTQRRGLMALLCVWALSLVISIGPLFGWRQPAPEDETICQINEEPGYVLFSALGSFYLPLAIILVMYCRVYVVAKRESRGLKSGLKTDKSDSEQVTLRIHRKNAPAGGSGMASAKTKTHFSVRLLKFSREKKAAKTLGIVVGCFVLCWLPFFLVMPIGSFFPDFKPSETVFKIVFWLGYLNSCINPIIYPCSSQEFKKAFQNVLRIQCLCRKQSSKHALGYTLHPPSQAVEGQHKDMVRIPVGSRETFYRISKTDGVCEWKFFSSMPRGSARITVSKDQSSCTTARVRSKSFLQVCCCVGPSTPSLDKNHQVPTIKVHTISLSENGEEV

[4] = biological target: T2, Alpha-1A adrenergic receptor; assay type: functional, cell-based; remark: listed apart in the source
[5] = biological target: T3, Alpha-2A adrenergic receptor (Homo sapiens, UniProt P08913)
T3 sequence (P08913 whole entry): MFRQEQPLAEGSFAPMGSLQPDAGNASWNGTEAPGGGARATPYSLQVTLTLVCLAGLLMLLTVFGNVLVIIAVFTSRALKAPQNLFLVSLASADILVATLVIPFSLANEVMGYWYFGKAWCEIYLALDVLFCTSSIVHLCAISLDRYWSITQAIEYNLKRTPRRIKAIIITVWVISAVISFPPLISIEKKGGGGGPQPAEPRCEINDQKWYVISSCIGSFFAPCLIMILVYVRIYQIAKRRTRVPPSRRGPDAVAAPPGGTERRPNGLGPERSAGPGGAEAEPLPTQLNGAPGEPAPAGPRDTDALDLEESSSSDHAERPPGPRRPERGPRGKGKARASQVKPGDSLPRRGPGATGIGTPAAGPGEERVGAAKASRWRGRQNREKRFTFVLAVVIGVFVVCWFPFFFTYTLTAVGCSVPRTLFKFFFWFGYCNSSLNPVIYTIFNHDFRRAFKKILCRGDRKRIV

[6] = biological target: Neuronal acetylcholine receptor subunit alpha-4 (Homo sapiens, UniProt P43681)
[7] = biological target: Melanocortin receptor 3 (Homo sapiens, UniProt P41968)
[8] = biological target: Motilin receptor (Homo sapiens, UniProt O43193)
[9] = biological target: T4, Neuropeptide Y receptor type 1 (Homo sapiens, UniProt P25929); conditions: read-out: AC50
T4 sequence (P25929 whole entry): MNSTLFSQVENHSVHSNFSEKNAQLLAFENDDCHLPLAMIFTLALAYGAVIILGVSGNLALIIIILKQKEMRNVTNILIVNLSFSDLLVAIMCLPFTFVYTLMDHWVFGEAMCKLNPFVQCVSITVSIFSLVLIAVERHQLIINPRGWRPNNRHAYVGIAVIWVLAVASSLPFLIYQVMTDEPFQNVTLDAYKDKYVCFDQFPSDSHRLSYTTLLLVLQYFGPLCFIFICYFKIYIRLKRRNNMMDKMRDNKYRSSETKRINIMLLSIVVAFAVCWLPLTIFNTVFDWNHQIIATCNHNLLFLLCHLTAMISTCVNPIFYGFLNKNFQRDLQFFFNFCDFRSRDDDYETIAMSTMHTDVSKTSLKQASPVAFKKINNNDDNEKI

[10] = biological target: 3',5'-cyclic-AMP phosphodiesterase 4A (Homo sapiens, UniProt P27815); assay type: functional
[11] = biological target: T5, Progesterone receptor (Homo sapiens, UniProt P06401)
T5 sequence (P06401 whole entry): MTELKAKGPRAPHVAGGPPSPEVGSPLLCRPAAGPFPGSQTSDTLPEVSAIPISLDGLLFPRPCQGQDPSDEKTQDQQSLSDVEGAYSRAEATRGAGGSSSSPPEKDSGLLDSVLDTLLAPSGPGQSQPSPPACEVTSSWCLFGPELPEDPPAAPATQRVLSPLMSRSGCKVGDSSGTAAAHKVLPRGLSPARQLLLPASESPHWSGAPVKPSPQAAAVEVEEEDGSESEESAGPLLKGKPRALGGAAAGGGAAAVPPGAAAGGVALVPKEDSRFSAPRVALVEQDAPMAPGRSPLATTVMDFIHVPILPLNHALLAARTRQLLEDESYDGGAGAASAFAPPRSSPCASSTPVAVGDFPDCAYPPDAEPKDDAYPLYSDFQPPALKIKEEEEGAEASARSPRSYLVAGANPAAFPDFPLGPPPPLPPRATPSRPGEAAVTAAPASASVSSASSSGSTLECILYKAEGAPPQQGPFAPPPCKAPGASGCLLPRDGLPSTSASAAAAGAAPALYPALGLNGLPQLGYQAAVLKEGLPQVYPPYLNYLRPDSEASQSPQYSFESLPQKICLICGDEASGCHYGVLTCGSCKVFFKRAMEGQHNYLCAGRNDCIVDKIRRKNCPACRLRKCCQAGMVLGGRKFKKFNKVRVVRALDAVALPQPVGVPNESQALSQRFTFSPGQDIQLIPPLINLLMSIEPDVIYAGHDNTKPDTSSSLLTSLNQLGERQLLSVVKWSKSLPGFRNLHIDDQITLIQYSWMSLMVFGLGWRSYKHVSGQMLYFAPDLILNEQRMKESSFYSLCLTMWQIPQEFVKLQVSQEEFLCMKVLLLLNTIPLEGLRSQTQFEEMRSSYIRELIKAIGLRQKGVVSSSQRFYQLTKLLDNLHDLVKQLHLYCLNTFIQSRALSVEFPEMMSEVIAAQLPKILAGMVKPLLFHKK
Note: assay procedure not described here.

Melanocortin receptor 3, sequence (P41968 whole entry): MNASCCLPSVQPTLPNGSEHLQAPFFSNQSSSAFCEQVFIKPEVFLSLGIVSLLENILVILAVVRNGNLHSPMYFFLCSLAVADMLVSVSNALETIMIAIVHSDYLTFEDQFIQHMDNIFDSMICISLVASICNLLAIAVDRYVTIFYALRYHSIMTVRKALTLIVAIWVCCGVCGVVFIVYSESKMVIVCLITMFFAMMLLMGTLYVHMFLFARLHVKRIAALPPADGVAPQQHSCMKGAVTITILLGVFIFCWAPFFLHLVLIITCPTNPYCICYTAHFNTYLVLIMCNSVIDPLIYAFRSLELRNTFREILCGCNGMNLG
Motilin receptor, sequence (O43193 whole entry): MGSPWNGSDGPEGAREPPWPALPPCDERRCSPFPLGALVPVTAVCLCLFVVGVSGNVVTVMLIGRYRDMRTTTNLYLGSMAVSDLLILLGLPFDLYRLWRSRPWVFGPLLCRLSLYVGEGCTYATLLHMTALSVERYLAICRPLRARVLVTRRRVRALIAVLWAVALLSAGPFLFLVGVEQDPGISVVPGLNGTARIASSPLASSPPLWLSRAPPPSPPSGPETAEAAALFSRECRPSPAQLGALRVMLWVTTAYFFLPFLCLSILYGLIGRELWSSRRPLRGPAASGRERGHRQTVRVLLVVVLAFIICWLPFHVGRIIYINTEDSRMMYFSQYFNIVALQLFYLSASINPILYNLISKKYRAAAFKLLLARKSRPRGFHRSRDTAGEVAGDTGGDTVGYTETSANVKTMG
Adenosine receptor A2a, sequence (P29274 whole entry): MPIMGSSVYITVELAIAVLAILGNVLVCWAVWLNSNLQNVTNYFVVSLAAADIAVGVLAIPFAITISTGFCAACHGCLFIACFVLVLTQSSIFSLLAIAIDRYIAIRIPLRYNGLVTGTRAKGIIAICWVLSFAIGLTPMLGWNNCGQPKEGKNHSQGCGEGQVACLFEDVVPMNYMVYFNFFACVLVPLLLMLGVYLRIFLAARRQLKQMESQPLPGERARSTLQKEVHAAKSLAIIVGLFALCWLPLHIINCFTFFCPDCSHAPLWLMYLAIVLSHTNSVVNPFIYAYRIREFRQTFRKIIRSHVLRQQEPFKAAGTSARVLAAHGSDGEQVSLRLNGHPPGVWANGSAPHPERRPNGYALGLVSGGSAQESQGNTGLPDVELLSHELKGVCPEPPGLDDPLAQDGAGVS
3',5'-cyclic-AMP phosphodiesterase 4A, sequence (P27815 whole entry): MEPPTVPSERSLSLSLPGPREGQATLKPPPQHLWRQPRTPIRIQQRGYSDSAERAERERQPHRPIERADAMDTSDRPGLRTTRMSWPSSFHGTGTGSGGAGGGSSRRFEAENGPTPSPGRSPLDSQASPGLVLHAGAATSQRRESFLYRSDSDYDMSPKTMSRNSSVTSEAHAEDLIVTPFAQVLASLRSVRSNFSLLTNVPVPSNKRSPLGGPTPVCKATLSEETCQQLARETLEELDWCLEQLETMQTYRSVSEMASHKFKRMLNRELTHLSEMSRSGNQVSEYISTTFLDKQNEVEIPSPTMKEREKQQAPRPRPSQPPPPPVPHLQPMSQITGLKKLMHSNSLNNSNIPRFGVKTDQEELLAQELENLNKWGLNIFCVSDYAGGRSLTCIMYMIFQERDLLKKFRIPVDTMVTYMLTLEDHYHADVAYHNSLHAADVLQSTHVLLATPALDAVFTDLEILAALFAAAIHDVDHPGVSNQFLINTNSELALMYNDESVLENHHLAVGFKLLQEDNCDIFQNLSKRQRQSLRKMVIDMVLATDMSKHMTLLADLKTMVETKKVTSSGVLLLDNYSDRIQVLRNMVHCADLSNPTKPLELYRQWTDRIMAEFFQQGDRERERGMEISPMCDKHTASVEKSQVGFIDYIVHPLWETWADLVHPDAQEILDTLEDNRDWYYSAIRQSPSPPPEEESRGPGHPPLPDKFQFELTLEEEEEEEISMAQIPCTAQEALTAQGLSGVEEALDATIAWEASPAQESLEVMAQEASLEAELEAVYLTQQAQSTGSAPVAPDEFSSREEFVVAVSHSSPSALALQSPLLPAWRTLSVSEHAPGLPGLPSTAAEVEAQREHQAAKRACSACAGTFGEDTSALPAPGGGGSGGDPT
Neuronal acetylcholine receptor subunit alpha-4, sequence (P43681 whole entry): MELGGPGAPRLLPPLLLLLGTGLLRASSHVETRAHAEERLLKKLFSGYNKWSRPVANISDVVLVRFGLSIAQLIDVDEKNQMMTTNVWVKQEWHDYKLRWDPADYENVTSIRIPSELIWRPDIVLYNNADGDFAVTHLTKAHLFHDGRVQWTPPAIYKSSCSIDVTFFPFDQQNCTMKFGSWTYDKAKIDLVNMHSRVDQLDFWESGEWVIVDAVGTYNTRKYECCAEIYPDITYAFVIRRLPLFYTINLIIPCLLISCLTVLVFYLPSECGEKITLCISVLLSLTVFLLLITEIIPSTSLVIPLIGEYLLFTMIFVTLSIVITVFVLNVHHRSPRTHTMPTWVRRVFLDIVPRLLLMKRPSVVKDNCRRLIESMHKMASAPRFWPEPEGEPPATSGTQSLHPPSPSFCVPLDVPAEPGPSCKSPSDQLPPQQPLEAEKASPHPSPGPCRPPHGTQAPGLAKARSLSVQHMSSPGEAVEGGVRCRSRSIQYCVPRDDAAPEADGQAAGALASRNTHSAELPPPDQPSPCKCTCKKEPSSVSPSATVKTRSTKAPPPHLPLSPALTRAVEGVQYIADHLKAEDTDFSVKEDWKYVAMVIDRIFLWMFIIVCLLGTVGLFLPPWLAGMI

Row | Compound | AC50 [1] [µM] | AC50 [2] [µM] | AC50 [3] [µM] | AC50 [4] [µM] | AC50 [5] [µM] | AC50 [6] [µM] | AC50 [7] [µM] | AC50 [8] [µM] | AC50 [9] [µM] | AC50 [10] [µM] | AC50 [11] [µM]
1 | Cc1onc(-c2ccccc2)c1-c1ccc(S(N)(=O)=O)cc1 [VALDECOXIB] | > 30 | 23.8 | > 30 | > 30 | > 30 | > 30 | > 30 | > 30 | > 30 | 18.7 | > 30
2 | CC(C)Cc1ccc(C(C)C(=O)O)cc1 (configuration not stated) [IBUPROFEN] | > 30 | > 30 | > 30 | > 30 | > 30 | > 10 | > 30 | > 10 | > 30 | > 30 | > 30

— ChEMBL document CHEMBL5291721, “A preclinical secondary pharmacology resource illuminates target-adverse drug reaction associations of marketed drugs” (Nat Commun, 2023)
